Laboratory results as given in patent US20250073210A1, “Use of Ergothioneine for Enhancing Glutathione Level” (priority 2022, published 2025).
Values joined by “and” are separate entries in the source; they are usually repeats but may differ in a detail not shown here. Equal entries are not always repeated. Where two headings read alike, the source gives them in different places.

What was measured:
[1] = system: TXNRD1; assay: RT-qPCR PCR array mQPA-8-Nrf2, TXNRD1 expression in NHEK; type: cell-based, human; settings: basal conditions, 20 μM
Procedure: (§1) In the present study, the effects of compound L-Ergothioneine were investigated in normal human epidermal keratinocytes (NHEK) under basal or UV-irradiated conditions. More specifically, the effects of this compound were evaluated using RT-qPCR technology. Extracted mRNA was analyzed using a PCR array (“mQPA-8-Nrf2”) for the analysis of 8 target genes (including 1 housekeeping gene) selected for their role in Nrf2 pathway. Prior to this assay, a preliminary cytotoxicity assay was performed on compound L-Ergothioneine and Resveratrol (reference in basal condition) using a standard WST-8 reduction assay, in order to determine the concentrations to be tested in this study.
(§2) Cell type: Normal human epidermal keratinocytes (NHEK) used at the 3rd passage. Culture conditions: 37° C., 5% CO2. Culture medium: Keratinocyte-SFM optimized for the assay, supplemented with Epidermal Growth Factor Pituitary extract. Assay medium: Keratinocyte-SFM optimized for the assay. Test compound: L-Ergothioneine in ultrapure water. Test concentrations: 0.5, 3 and 30 μM. Reference: Resveratrol. Test concentration: 20 μM.
(§3) Keratinocytes were seeded in 24-well plates and cultured for 24 hours in culture medium and in assay medium for a further 24 hours. The medium was then replaced by assay medium containing or not (control) the compound or Resveratrol and cells were pre-incubated for 24 hours.
(§4) After pre-incubation, the medium was then removed and replaced by a PBS solution. For basal conditions, the plate was kept in the dark during the irradiation time. For irradiated conditions, the cells were irradiated with UVB−275 mJ/cm^2 (+UVA−2 J/cm^2) using a SOL500 Sun Simulator equipped with an H2 filter (Dr. Hönle, AG). After irradiation time, the treatments were renewed, and the cells were incubated for 24 hours. All experimental conditions were performed in n=3. At the end of incubation, the cells were washed in phosphate buffered saline (PBS) solution and immediately frozen at −80° C.
(§5) The expression of markers was analyzed using RT-qPCR method on total RNA extracted from the cell monolayers of each experimental condition (before RNA extraction, the replicates of the same experimental condition were pooled). The analysis of transcripts was performed in n=2 using a PCR array dedicated to research and adapted to ‘screening’ format and targeting 8 genes selected for their role in Nrf2 pathway.
(§6) Total RNA was extracted from each sample using TriPure Isolation Reagent® according to the supplier's instructions. The amount and quality of RNA were evaluated using capillary electrophoresis (Bioanalyzer 2100, Agilent technologies). The complementary DNA (cDNA) was synthetized by reverse transcription of total RNA in presence of oligo(dT) and «Transcriptor Reverse Transcriptase» (Roche Molecular System Inc.). The cDNA quantities were then adjusted before PCR.
(§7) The PCR (Polymerase Chain Reaction) were performed using the «LightCycler®» system (Roche Molecular System Inc.) according to the supplier's instructions. The reaction mix (10 μl final) was prepared as follows: 2.5 μl of cDNA; primers (forward and reverse); reagent mix (Roche) containing taq DNA polymerase, SYBR Green I and MgCl2.
(§8) The incorporation of fluorescence in amplified DNA was continuously measured during the PCR cycles. […] The value selected for RE calculations is the “output point” (Ct) of the fluorescence curve. For a considered marker, the highest is the cycle number; the lowest is the mRNA quantity. The RE value was calculated with the formula: (½^number of cycles)×10^6. The PCR array used in the present study included 1 reference gene (RPS28).

[2] = system: NQO1; assay: RT-qPCR PCR array mQPA-8-Nrf2, NQO1 expression in NHEK; type: cell-based, human; settings: basal conditions, 20 μM
Procedure: as §1, §2, §3, §4, §5, §6, §7, §8

[3] = system: MT1G; assay: RT-qPCR PCR array mQPA-8-Nrf2, MT1G expression in NHEK; type: cell-based, human; settings: basal conditions, 20 μM
Procedure: as §1, §2, §3, §4, §5, §6, §7, §8

[4] = system: GCLC; assay: RT-qPCR PCR array mQPA-8-Nrf2, GCLC expression in NHEK; type: cell-based, human; settings: basal conditions, 20 μM
Procedure: as §1, §2, §3, §4, §5, §6, §7, §8

[5] = system: Nrf2 pathway; assay: Gene expression profile of keratinocytes (mQPA-8-Nrf2 array as a whole); type: cell-based, human; settings: basal, tested at 20 μM
Procedure: as §1, §2, §3, §4, §5

[6] = Preliminary cytotoxicity assay (WST-8 reduction, viability and morphological observations); type: cell-based, human; settings: human, normal human epidermal keratinocytes (NHEK)
Procedure: as §1, §2
(§9) Cell type: NHEK in assay medium. Incubation time: 24 hours.
(§10) After treatment, the cells were incubated with WST-8 (highly water-soluble tetrazolium salt) reduced in a water-soluble orange colored product (formazan) by succinate dehydrogenase (mitochondrial enzyme). This transformation is proportional to the number of living cells and their metabolic activity. The optical density (OD) of the extracts at 450 nm was recorded with a spectrometer (VERSAmax, Molecular Devices).

[7] = system: normal human epidermal keratinocytes (NHEK); assay: as above; type: cell-based; settings: 24 hours; for Viability (%): single replicates
Procedure: as §1, §2, §9, §10

[8] = system: GCLM; assay: RT-qPCR PCR array mQPA-8-Nrf2, GCLM expression in NHEK; type: cell-based, human; settings: basal conditions, 20 μM
Procedure: as §1, §2, §3, §4, §5, §6, §7, §8

[9] = system: TXN; assay: RT-qPCR PCR array mQPA-8-Nrf2, TXN expression in NHEK; type: cell-based, human; settings: basal conditions, 20 μM
Procedure: as §1, §2, §3, §4, §5, §6, §7, §8

[10] = system: NHEK; assay: Morphological observation of cells at the end of the culture, irradiated condition; type: cell-based, human
Procedure: as §3, §4

[11] = system: HMOX1; assay: RT-qPCR PCR array mQPA-8-Nrf2, HMOX1 expression in NHEK; type: cell-based, human; settings: basal conditions, 20 μM
Procedure: as §1, §2, §3, §4, §5, §6, §7, §8

[12] = system: RPS28; assay: RT-qPCR PCR array mQPA-8-Nrf2, housekeeping gene RPS28; type: cell-based, human; settings: basal conditions, 20 μM
Procedure: as §1, §2, §3, §4, §5, §6, §7, §8

[13] = 24 hours of incubation, read-out: Viability Mean (%)
[14] = single replicates, 24 hours, read-out: Viability (%)

Oc1ccc(C=Cc2cc(O)cc(O)c2)cc1 [Resveratrol]
TXNRD1 % Control RPS28 [1]: 492 % Control | NQO1 % Control RPS28 [2]: 1468 % Control | MT1G % Control RPS28 [3]: 79 % Control | GCLC % Control RPS28 [4]: 554 % Control | Expression of genes involved in oxidative and cellular stress response [5]: stimulation of the expression of all genes (except MT1G) | viability at 24 h, 0.247 µM [6, 13]: 99% | viability at 24 h, 0.741 µM [6, 13]: 101% | viability at 24 h, 2.2 µM [6, 13]: 106% | viability at 24 h, 6.7 µM [6, 13]: 106% | viability at 24 h, 20 µM [6, 13]: 93% | viability at 24 h, 60 µM [6, 13]: 65% | viability at 24 h, 180 µM [6, 13]: 31% | viability at 24 h, 540 µM [6, 13]: 8% | viability at 24 h, 0.247 µM [6, 14]: 101% | viability at 24 h, 0.741 µM [6, 14]: 102% | viability at 24 h, 2.2 µM [6, 14]: 109% | viability at 24 h, 6.7 µM [6, 14]: 109% | viability at 24 h, 20 µM [6, 14]: 97% | viability at 24 h, 60 µM [6, 14]: 65% | viability at 24 h, 180 µM [6, 14]: 32% | viability at 24 h, 540 µM [6, 14]: 8% | Morphological observations ([7]; 0.247 μM): + | Morphological observations ([7]; 0.741 μM): + | Morphological observations ([7]; 2.2 μM): + | Morphological observations ([7]; 6.7 μM): + | Morphological observations ([7]; 20 μM): + | Morphological observations ([7]; 540 μM): −, * | Viability (%) ([7]; 0.247 μM): 98% | Viability (%) ([7]; 0.741 μM): 100% | Viability (%) ([7]; 2.2 μM): 105% | Viability (%) ([7]; 6.7 μM): 108% | Viability (%) ([7]; 20 μM): 88% | Viability (%) ([7]; 60 μM): 67% and 64% | Viability (%) ([7]; 180 μM): 29% | GCLM % Control RPS28 [8]: 736 % Control | TXN % Control RPS28 [9]: 345 % Control | Viability of NHEK under irradiated condition [10]: strongly impacted | HMOX1 % Control RPS28 [11]: 451 % Control | RPS28 % Control RPS28 [12]: 100 % Control
